Biological target: Amyloid-beta precursor protein (Homo sapiens, UniProt P05067)
Test: Inhibitory activity against binding of [125I]IMSB to amyloid beta in brain
Type: tissue-based

Sequence of Amyloid-beta precursor protein (P05067 whole entry): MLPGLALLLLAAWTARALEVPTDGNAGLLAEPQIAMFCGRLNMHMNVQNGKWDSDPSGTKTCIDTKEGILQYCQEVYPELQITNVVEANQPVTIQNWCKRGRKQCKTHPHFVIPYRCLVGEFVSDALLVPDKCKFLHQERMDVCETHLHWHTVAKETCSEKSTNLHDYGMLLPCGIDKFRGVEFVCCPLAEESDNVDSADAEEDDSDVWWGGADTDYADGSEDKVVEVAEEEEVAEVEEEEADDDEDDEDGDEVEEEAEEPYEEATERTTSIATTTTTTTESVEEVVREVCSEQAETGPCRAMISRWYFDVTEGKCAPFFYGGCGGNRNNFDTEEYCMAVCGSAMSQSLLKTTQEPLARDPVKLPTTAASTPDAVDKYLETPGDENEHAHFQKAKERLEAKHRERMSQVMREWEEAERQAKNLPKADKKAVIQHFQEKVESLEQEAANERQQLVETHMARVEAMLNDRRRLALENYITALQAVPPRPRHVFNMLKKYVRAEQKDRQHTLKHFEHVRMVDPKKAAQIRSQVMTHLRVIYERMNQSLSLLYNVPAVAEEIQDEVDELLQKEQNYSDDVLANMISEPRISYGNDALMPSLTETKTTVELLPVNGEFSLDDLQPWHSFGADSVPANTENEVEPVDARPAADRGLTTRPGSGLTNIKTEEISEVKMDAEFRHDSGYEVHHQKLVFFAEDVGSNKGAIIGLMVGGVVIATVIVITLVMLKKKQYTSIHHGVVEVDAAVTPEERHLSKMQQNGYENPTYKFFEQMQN

`O=C(O)c1cc(/C=C\c2ccc(/C=C/c3ccc(O)c(C(=O)O)c3)cc2Br)ccc1O` and `O=C(O)c1cc(/C=C\c2ccc(/C=C/c3ccc(O)c(C(=O)O)c3)c(Br)c2)ccc1O` are within 1.5-fold of each other in Ki: 0.19 nM for the first, 0.27 nM for the second.

`O=C(O)c1cc(/C=C/c2ccc(/C=C/c3ccc(O)c(C(=O)O)c3)c(Br)c2)ccc1O` and `O=C(O)c1cc(/C=C\c2ccc(/C=C\c3ccc(O)c(C(=O)O)c3)c(Br)c2)ccc1O` are within 1.5-fold of each other in Ki: 0.11 nM for the first, 0.13 nM for the second.

Molecule `O=C(O)c1ccccc1O` [SALICYLIC ACID] has a Ki of over 1800 nM.
